Tests used:
Assay in all cases: In vitro cytotoxicity (SRB)
Format in all cases: cell-based, human
MDA-MB-231/ATCC = MDA-MB-231/ATCC (Breast); 48 h continuous drug exposure
Description: (§1) The compounds were evaluated for in vitro anticancer activity against sixty human tumour cells derived from nine cancer types (leukemia, non-small-cell lung, colon, CNS, melanoma, ovarian, prostate, and breast cancer) as shown in Table 1a. For each compound, dose response curves for each cell line were measured at a minimum of five concentrations at 10 fold dilutions. A protocol of 48 h continuous drug exposure was used and a sulforhodamine B (SRB) protein assay was used to estimate cell viability or growth. The concentration causing 50% cell growth inhibition (GI50), total cell growth inhibition (TGI 0% growth) and 50% cell death (LC50, −50% growth) compared with the control was calculated. The Log10 GI50 (concentration in mol/L causing 50% growth inhibition) values for Cinnamido-pyrrolo[2,1-c][1,4]benzodiazepine (8b) is listed in Table 2.

SK-MEL-28 = SK-MEL-28 (Melanoma); 48 h continuous drug exposure
Description: as §1

OVCAR-4 = OVCAR-4 (Ovarian); 48 h continuous drug exposure
Description: as §1

SNB-19 = SNB-19 (CNS); 48 h continuous drug exposure
Description: as §1

UACC-257 = UACC-257 (Melanoma); 48 h continuous drug exposure
Description: as §1

SK-MEL-5 = SK-MEL-5 (Melanoma); 48 h continuous drug exposure
Description: as §1

RPMI-8226 = RPMI-8226 (Leukemia); 48 h continuous drug exposure
Description: as §1

NCI-H322M = NCI-H322M (Non-small cell lung); 48 h continuous drug exposure
Description: as §1

K-562 = K-562 (Leukemia); 48 h continuous drug exposure
Description: as §1

HOP-92 = conditions: 48 h continuous drug exposure
Description: as §1

DU-145 = DU-145 (Prostate); 48 h continuous drug exposure
Description: as §1

UO-31 = UO-31 (Renal); 48 h continuous drug exposure
Description: as §1

SK-OV-3 = SK-OV-3 (Ovarian); 48 h continuous drug exposure
Description: as §1

LOX IMVI = LOX IMVI (Melanoma); 48 h continuous drug exposure
Description: as §1

COLO 205 = COLO 205 (Colon); 48 h continuous drug exposure
Description: as §1

MCF7 = MCF7 (Breast); 48 h continuous drug exposure
Description: as §1

SF-295 = SF-295 (CNS); 48 h continuous drug exposure
Description: as §1

EKVX = EKVX (Non-small cell lung); 48 h continuous drug exposure
Description: as §1

HS 578T = HS 578T (Breast); 48 h continuous drug exposure
Description: as §1

M14 = M14 (Melanoma); 48 h continuous drug exposure
Description: as §1

HCC-2998 = HCC-2998 (Colon); 48 h continuous drug exposure
Description: as §1

KM12 = KM12 (Colon); 48 h continuous drug exposure
Description: as §1

HT29 = HT29 (Colon); 48 h continuous drug exposure
Description: as §1

CAKI-1 = CAKI-1 (Renal); 48 h continuous drug exposure
Description: as §1

OVCAR-5 = OVCAR-5 (Ovarian); 48 h continuous drug exposure
Description: as §1

NCI/ADR-RES = NCI/ADR-RES (Breast); 48 h continuous drug exposure
Description: as §1

MALME-3M = MALME-3M (Melanoma); 48 h continuous drug exposure
Description: as §1

NCI-H226 = NCI-H226 (Non-small cell lung); 48 h continuous drug exposure
Description: as §1

SR = SR (Leukemia); 48 h continuous drug exposure
Description: as §1

SF-268 = SF-268 (CNS); 48 h continuous drug exposure
Description: as §1

SW-620 = SW-620 (Colon); 48 h continuous drug exposure
Description: as §1

NCI-H460 = NCI-H460 (Non-small cell lung); 48 h continuous drug exposure
Description: as §1

U251 = U251 (CNS); 48 h continuous drug exposure
Description: as §1

SNB-75 = SNB-75 (CNS); 48 h continuous drug exposure
Description: as §1

How did the GI50 (MDA-MB-231/ATCC) turn out when `COc1cc(/C=C/C(=O)N2CCN(C(=O)c3cc(OC)c(OC)c(OC)c3)CC2)ccc1OCCCOc1cc2c(cc1OC)C(=O)N1CCC[C@H]1C=N2` [8b, 7-methoxy-8-{3-(2-methoxy-4-(E)-3-oxo-3-[4-(3,4,5-trimethoxybenzoyl)piperazino]-1-propenylphenoxy)propoxy}-(11aS)-2,3,5,11^a-tetrahydro-5H-pyrrolo[2,1-c][1,4]benzo-diazepine-5-one] was run?
Its GI50 is 0.23 µM.

What about the GI50 (SK-MEL-28) of the same compound?
Its GI50 is 0.21 µM.

What about the GI50 (OVCAR-4) of the same compound?
The GI50 was 2.2 µM.

And the GI50 (SNB-19)?
Its GI50 is 0.33 µM.

And the GI50 (UACC-257)?
Its GI50 is 0.27 µM.

What about the GI50 (SK-MEL-5) of the same compound?
The GI50 was 0.19 µM.

And the GI50 (RPMI-8226)?
The GI50 was 0.65 µM.

And the GI50 (NCI-H322M)?
The GI50 was 3.07 µM.

What about the GI50 (K-562) of the same compound?
Its GI50 is 0.15 µM.

And the GI50 (HOP-92; HOP-92, first line so named (Non-small cell lung))?
The GI50 was 0.32 µM.

What about the GI50 (HOP-92; HOP-92, second line so named (Non-small cell lung)) of the same compound?
Its GI50 is 0.17 µM.

What about the GI50 (DU-145) of the same compound?
The GI50 was 0.36 µM.

And the GI50 (UO-31)?
Its GI50 is 1.15 µM.

And the GI50 (SK-OV-3)?
The GI50 was 0.49 µM.

What about the GI50 (LOX IMVI) of the same compound?
Its GI50 is 0.18 µM.

What about the GI50 (COLO 205) of the same compound?
The GI50 was 0.18 µM.

What about the GI50 (MCF7) of the same compound?
The GI50 was 0.13 µM.

What about the GI50 (SF-295) of the same compound?
Its GI50 is 0.01 µM.

What about the GI50 (EKVX) of the same compound?
The GI50 was 0.86 µM.

What about the GI50 (HS 578T) of the same compound?
The GI50 was 0.31 µM.

What about the GI50 (M14) of the same compound?
The GI50 was 0.37 µM.

What about the GI50 (HCC-2998) of the same compound?
The GI50 was 0.36 µM.

What about the GI50 (KM12) of the same compound?
The GI50 was 0.28 µM.

And the GI50 (HT29)?
Its GI50 is 0.4 µM.

And the GI50 (CAKI-1)?
The GI50 was 1.12 µM.

And the GI50 (OVCAR-5)?
Its GI50 is 0.29 µM.

What about the GI50 (NCI/ADR-RES) of the same compound?
Its GI50 is 1.47 µM.

What about the GI50 (MALME-3M) of the same compound?
Its GI50 is 0.2 µM.

What about the GI50 (NCI-H226) of the same compound?
The GI50 was 0.25 µM.

What about the GI50 (SR) of the same compound?
The GI50 was 0.02 µM.

What about the GI50 (SF-268) of the same compound?
The GI50 was 0.32 µM.

And the GI50 (SW-620)?
Its GI50 is 0.19 µM.

And the GI50 (NCI-H460)?
The GI50 was 0.33 µM.

And the GI50 (U251)?
The GI50 was 0.27 µM.

And the GI50 (SNB-75)?
The GI50 was 0.26 µM.

Source: patent US8722665B2, “Cinnamido-pyrrolo[2,1-C][1,4]benzodiazepines as potential anticancer agents and process for the preparation thereof” (Council of Scientific & Industrial Research, priority 2008, dated 2014)
